# Literature values, collected in patent US4722394A, “Determining residual oil saturation by radioactively analyzing injected CO2 and base-generating tracer-providing solution” (Shell Oil Company, priority 1986, dated 1988).
smiles,measurement,value
"O=C=O [CO2, carbon dioxide]","distribution coefficient, Ki (ratio of concentration of tracer in the oil phase to that in the water phase)",about 2
